Source: US6972319B1, “Pituitary adenylate cyclase activating peptide (PACAP)receptor 3 (R3) agonists and their pharmacological methods of use” (priority 1999, dated 2005)
No end group written: not given here.

Assays:
PACAP-R2 = molecular target: T1, PACAP-R2 (Homo sapiens, UniProt P32241); assay: Cyclic AMP SPA on CHO cells transfected with PACAP-R2; assay type: cell-based; details: cAMP SPA, concentration at which 50% of maximum PACAP27 activity is achieved, NA = no detectable activities, read-out: R2 EC50
T1 construct: expressed in transfected cells; host or cells: CHO cells
T1 sequence (P32241 31-457): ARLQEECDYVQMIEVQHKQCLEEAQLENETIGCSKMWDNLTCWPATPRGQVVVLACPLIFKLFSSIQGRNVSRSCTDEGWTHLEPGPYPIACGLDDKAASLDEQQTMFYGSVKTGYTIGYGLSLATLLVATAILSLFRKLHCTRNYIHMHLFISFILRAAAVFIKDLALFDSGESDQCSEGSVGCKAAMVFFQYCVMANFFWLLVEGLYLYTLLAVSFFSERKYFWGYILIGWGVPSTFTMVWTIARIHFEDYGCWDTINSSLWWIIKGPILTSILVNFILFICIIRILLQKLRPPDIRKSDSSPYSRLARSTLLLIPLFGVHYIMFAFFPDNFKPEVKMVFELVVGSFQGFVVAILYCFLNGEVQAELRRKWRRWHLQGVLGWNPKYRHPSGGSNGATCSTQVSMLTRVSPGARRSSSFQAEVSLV
Description: (§1) CHO cells expressing the PACAP R3 were plated in 96-well plates (Costar) at 8×10^4 cell/well and grown at 37 C. for 24 hours in α MEM+nucleosides+glutamine (Giobco BRL), 10% FBS, 100 μg/ml Pen/Strep, 0.3 mg/ml glutamine, 1 mM HEPES, 0.5 mg/ml Geneticin (Gibco BRL). The media was removed and the plates were washed with PBS. The cells were incubated with a peptide, in Hepes-PBS-BSA with 0.4 mg/mlSoybean Trypsin Inhibitor, 0.5 mg/ml Bacitracin, 100 uM IBMX, for 15 min at 37 C. Cyclic AMP in the cell extracts was quantitated using the cAMP SPA direct screening assay system (Amersham Pharmacia Biotech Inc, Piscataway, N.J.,). The peptides shown in Table 3 were assayed for cAMP activity.
(§2) EC50 is defined as the concentration of the polypeptide at which 50% of maximum PACAP27 activity is achieved. “NA” denotes no detectable activities. “R3 Selectivity” is derived from the ratio of EC50 at R2 versus EC50 at R3.

PACAP-R3 = molecular target: T2, PACAP-R3 (Homo sapiens, UniProt P41587); assay: Cyclic AMP SPA on CHO cells expressing PACAP R3; assay type: cell-based; design: expressed in transfected cells; host or cells: CHO cells (Geneticin selection)
T2 sequence (P41587 24-438): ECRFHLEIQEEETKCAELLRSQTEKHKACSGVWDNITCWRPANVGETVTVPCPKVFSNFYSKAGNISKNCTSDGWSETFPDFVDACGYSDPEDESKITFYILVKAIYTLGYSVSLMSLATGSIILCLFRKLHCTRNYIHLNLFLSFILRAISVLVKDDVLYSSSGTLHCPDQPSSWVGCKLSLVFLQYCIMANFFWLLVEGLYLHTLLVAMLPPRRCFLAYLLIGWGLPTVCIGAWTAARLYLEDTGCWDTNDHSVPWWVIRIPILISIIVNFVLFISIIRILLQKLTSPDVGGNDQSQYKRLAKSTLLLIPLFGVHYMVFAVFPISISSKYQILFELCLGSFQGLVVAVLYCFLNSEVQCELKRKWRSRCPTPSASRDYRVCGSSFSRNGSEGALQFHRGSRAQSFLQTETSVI
Description: as §1, §2

Compound	EC50 (PACAP-R2)	EC50 (PACAP-R3; cAMP SPA, CHO cells transfected with PACAP-R3, concentration at which 50% of maximum PACAP27 activity is achieved, NA = no detectable activities, read-out: R3 EC50)	R3 Selectivity (PACAP-R3; ratio of EC50 at R2 versus EC50 at R3)
HSDAVFTDNYTRLRKQMAAKKYLNSIKNKN [Peptide R3P164]	100 nM	0.3 nM	300
CC[C@H](C)[C@H](NC(=O)[C@H](CO)NC(=O)[C@H](CC(N)=O)NC(=O)[C@H](CC(C)C)NC(=O)[C@H](Cc1ccc(O)cc1)NC(=O)[C@H](CCCCN)NC(=O)[C@H](CCCCN)NC(=O)[C@H](C)NC(=O)[C@H](C)NC(=O)[C@H](CCSC)NC(=O)[C@H](CCC(N)=O)NC(=O)[C@H](CCCCN)NC(=O)[C@H](CCCNC(=N)N)NC(=O)[C@H](CC(C)C)NC(=O)[C@H](CCCNC(=N)N)NC(=O)[C@@H](NC(=O)[C@H](Cc1ccc(O)cc1)NC(=O)[C@H](CC(N)=O)NC(=O)[C@H](CC(=O)O)NC(=O)[C@@H](NC(=O)[C@H](Cc1ccccc1)NC(=O)[C@@H](NC(=O)[C@H](C)NC(=O)[C@H](CC(=O)O)NC(=O)[C@H](CO)NC(=O)[C@@H](N)Cc1c[nH]cn1)C(C)C)[C@@H](C)O)[C@@H](C)O)C(=O)N[C@@H](CCCCN)C(=O)N[C@@H](CC(N)=O)C(=O)N[C@@H](CCCCN)C(=O)N[C@@H](Cc1c[nH]c2ccccc12)C(=O)O [Peptide R3P170]	20 nM		
CC[C@H](C)[C@H](NC(=O)[C@H](CO)NC(=O)[C@H](CC(N)=O)NC(=O)[C@H](CC(C)C)NC(=O)[C@H](Cc1ccc(O)cc1)NC(=O)[C@H](CCCCN)NC(=O)[C@H](CCCCN)NC(=O)[C@H](C)NC(=O)[C@H](C)NC(=O)[C@H](CCSC)NC(=O)[C@H](CCC(N)=O)NC(=O)[C@H](CCCCN)NC(=O)[C@H](CCCNC(=N)N)NC(=O)[C@H](CC(C)C)NC(=O)[C@H](CCCNC(=N)N)NC(=O)[C@@H](NC(=O)[C@H](Cc1ccc(O)cc1)NC(=O)[C@H](CC(N)=O)NC(=O)[C@H](CC(=O)O)NC(=O)[C@@H](NC(=O)[C@H](Cc1ccccc1)NC(=O)[C@@H](NC(=O)[C@H](C)NC(=O)[C@H](CC(=O)O)NC(=O)[C@H](CO)NC(=O)[C@@H](N)Cc1c[nH]cn1)C(C)C)[C@@H](C)O)[C@@H](C)O)C(=O)N[C@@H](CCCCN)C(=O)N[C@@H](CC(N)=O)C(=O)N[C@@H](CCCCN)C(=O)N[C@@H](CO)C(=O)O [Peptide R3P167]	300 nM		
CC[C@H](C)[C@H](NC(=O)[C@H](CO)NC(=O)[C@H](CC(N)=O)NC(=O)[C@H](CC(C)C)NC(=O)[C@H](Cc1ccc(O)cc1)NC(=O)[C@H](CCCCN)NC(=O)[C@H](CCCCN)NC(=O)[C@H](C)NC(=O)[C@H](C)NC(=O)[C@H](CCSC)NC(=O)[C@H](CCC(N)=O)NC(=O)[C@H](CCCCN)NC(=O)[C@H](CCCNC(=N)N)NC(=O)[C@H](CC(C)C)NC(=O)[C@H](CCCNC(=N)N)NC(=O)[C@@H](NC(=O)[C@H](Cc1ccc(O)cc1)NC(=O)[C@H](CC(N)=O)NC(=O)[C@H](CC(=O)O)NC(=O)[C@@H](NC(=O)[C@H](Cc1ccccc1)NC(=O)[C@@H](NC(=O)[C@H](C)NC(=O)[C@H](CC(=O)O)NC(=O)[C@H](CO)NC(=O)[C@@H](N)Cc1c[nH]cn1)C(C)C)[C@@H](C)O)[C@@H](C)O)C(=O)N[C@@H](Cc1ccc(O)cc1)C(=O)N[C@@H](CC(N)=O)C(=O)N[C@@H](CCCCN)C(=O)N[C@@H](CCCNC(=N)N)C(=O)O [Peptide R3P133]	8 nM		
CC[C@H](C)[C@H](NC(=O)[C@H](CO)NC(=O)[C@H](CC(N)=O)NC(=O)[C@H](CC(C)C)NC(=O)[C@H](Cc1ccc(O)cc1)NC(=O)[C@H](CCCCN)NC(=O)[C@H](CCCCN)NC(=O)[C@H](C)NC(=O)[C@H](C)NC(=O)[C@H](CCSC)NC(=O)[C@H](CCC(N)=O)NC(=O)[C@H](CCCCN)NC(=O)[C@H](CCCNC(=N)N)NC(=O)[C@H](CC(C)C)NC(=O)[C@H](CCCNC(=N)N)NC(=O)[C@@H](NC(=O)[C@H](Cc1ccc(O)cc1)NC(=O)[C@H](CC(N)=O)NC(=O)[C@H](CC(=O)O)NC(=O)[C@@H](NC(=O)[C@H](Cc1ccccc1)NC(=O)[C@@H](NC(=O)[C@H](C)NC(=O)[C@H](CC(=O)O)NC(=O)[C@H](CO)NC(=O)[C@@H](N)Cc1c[nH]cn1)C(C)C)[C@@H](C)O)[C@@H](C)O)C(=O)N[C@H](C(=O)N[C@@H](CC(N)=O)C(=O)N[C@@H](CCCCN)C(=O)N[C@@H](CCCNC(=N)N)C(=O)O)[C@@H](C)CC [Peptide R3P123]	5 nM		
CC[C@H](C)[C@H](NC(=O)[C@H](CO)NC(=O)[C@H](CC(N)=O)NC(=O)[C@H](CC(C)C)NC(=O)[C@H](Cc1ccc(O)cc1)NC(=O)[C@H](CCCCN)NC(=O)[C@H](CCCCN)NC(=O)[C@H](C)NC(=O)[C@H](C)NC(=O)[C@H](CCSC)NC(=O)[C@H](CCC(N)=O)NC(=O)[C@H](CCCCN)NC(=O)[C@H](CCCNC(=N)N)NC(=O)[C@H](CC(C)C)NC(=O)[C@H](CCCNC(=N)N)NC(=O)[C@@H](NC(=O)[C@H](Cc1ccc(O)cc1)NC(=O)[C@H](CC(N)=O)NC(=O)[C@H](CC(=O)O)NC(=O)[C@@H](NC(=O)[C@H](Cc1ccccc1)NC(=O)[C@@H](NC(=O)[C@H](C)NC(=O)[C@H](CC(=O)O)NC(=O)[C@H](CO)NC(=O)[C@@H](N)Cc1c[nH]cn1)C(C)C)[C@@H](C)O)[C@@H](C)O)C(=O)N[C@@H](CCCCN)C(=O)N[C@@H](CC(N)=O)C(=O)N[C@@H](C)C(=O)N[C@@H](CCCNC(=N)N)C(=O)O [Peptide R3P134]	40 nM		
CC[C@H](C)[C@H](NC(=O)[C@H](CO)NC(=O)[C@H](CC(N)=O)NC(=O)[C@H](CC(C)C)NC(=O)[C@H](Cc1ccc(O)cc1)NC(=O)[C@H](CCCCN)NC(=O)[C@H](CCCCN)NC(=O)[C@H](C)NC(=O)[C@H](C)NC(=O)[C@H](CCSC)NC(=O)[C@H](CCC(N)=O)NC(=O)[C@H](CCCCN)NC(=O)[C@H](CCCNC(=N)N)NC(=O)[C@H](CC(C)C)NC(=O)[C@H](CCCNC(=N)N)NC(=O)[C@@H](NC(=O)[C@H](Cc1ccc(O)cc1)NC(=O)[C@H](CC(N)=O)NC(=O)[C@H](CC(=O)O)NC(=O)[C@@H](NC(=O)[C@H](Cc1ccccc1)NC(=O)[C@@H](NC(=O)[C@H](C)NC(=O)[C@H](CC(=O)O)NC(=O)[C@H](CO)NC(=O)[C@@H](N)Cc1c[nH]cn1)C(C)C)[C@@H](C)O)[C@@H](C)O)C(=O)N[C@@H](CCCCN)C(=O)N[C@@H](CC(N)=O)C(=O)N[C@@H](CCCCN)C(=O)N[C@@H](CC(C)C)C(=O)O [Peptide R3P162]	20 nM		
CC[C@H](C)[C@H](NC(=O)[C@H](CO)NC(=O)[C@H](CC(N)=O)NC(=O)[C@H](CC(C)C)NC(=O)[C@H](Cc1ccc(O)cc1)NC(=O)[C@H](CCCCN)NC(=O)[C@H](CCCCN)NC(=O)[C@@H](NC(=O)[C@H](C)NC(=O)[C@H](CCSC)NC(=O)[C@H](CCC(N)=O)NC(=O)[C@H](CCCCN)NC(=O)[C@H](CCCNC(=N)N)NC(=O)[C@H](CC(C)C)NC(=O)[C@H](CCCNC(=N)N)NC(=O)[C@@H](NC(=O)[C@H](Cc1ccc(O)cc1)NC(=O)[C@H](CC(N)=O)NC(=O)[C@H](CC(=O)O)NC(=O)[C@@H](NC(=O)[C@H](Cc1ccccc1)NC(=O)[C@@H](NC(=O)[C@H](C)NC(=O)[C@H](CC(=O)O)NC(=O)[C@H](CO)NC(=O)[C@@H](N)Cc1c[nH]cn1)C(C)C)[C@@H](C)O)[C@@H](C)O)C(C)C)C(=O)N[C@@H](CCCCN)C(=O)N[C@@H](CC(N)=O)C(=O)N[C@@H](CCCCN)C(=O)N[C@@H](CCCNC(=N)N)C(=O)O [Peptide R3P113]	3 nM		
CC[C@H](C)[C@H](NC(=O)[C@H](CO)NC(=O)[C@H](CC(N)=O)NC(=O)[C@H](CC(C)C)NC(=O)[C@H](Cc1ccc(O)cc1)NC(=O)[C@H](CCCCN)NC(=O)[C@H](CCCCN)NC(=O)[C@@H](NC(=O)[C@H](C)NC(=O)[C@H](CCSC)NC(=O)[C@H](CCC(N)=O)NC(=O)[C@H](CCCCN)NC(=O)[C@H](CCCNC(=N)N)NC(=O)[C@H](CC(C)C)NC(=O)[C@H](CCCNC(=N)N)NC(=O)[C@@H](NC(=O)[C@H](Cc1ccc(O)cc1)NC(=O)[C@H](CC(N)=O)NC(=O)[C@H](CC(=O)O)NC(=O)[C@@H](NC(=O)[C@H](Cc1ccccc1)NC(=O)[C@@H](NC(=O)[C@H](C)NC(=O)[C@H](CC(=O)O)NC(=O)[C@H](CO)NC(=O)[C@@H](N)Cc1c[nH]cn1)C(C)C)[C@@H](C)O)[C@@H](C)O)[C@@H](C)O)C(=O)N[C@@H](CCCCN)C(=O)N[C@@H](CC(N)=O)C(=O)N[C@@H](CCCCN)C(=O)N[C@@H](CCCNC(=N)N)C(=O)O [Peptide R3P112]	4 nM		
